Assay: In vivo pharmacokinetics in rats
Conditions: SD rats
Protocol: Test Example 4 Study of In Vivo Pharmacokinetics of the Present Compounds in Rats
Male SD rats (Shanghai Sippr-BK Experimental Animal Co., Ltd) were purchased and kept in Shanghai University of Traditional Chinese Medicine animal center (approved by the ethics committee of Shanghai University of Traditional Chinese Medicine) for 7 days. The rats were randomly divided into 4 groups (˜220 g), 3 rats for each group. Animals were administered intravenously (iv) and orally (po). The rats in po group were starved for 12 hours before administration. After administration, blood was collected from the orbital venous plexus at 0 min (before administration), 2 min, 5 min, 15 min, 30 min, 1 h, 2 h, 4 h, 6 h, 8 h and 24 h. About 200 ul of blood was collected at each time point, and were collected in 1.5 ml centrifuge tube containing heparin sodium. The upper blood […] were collected by centrifugation (8000 rpm, 3 min) and stored at −80° C.
Preparation of test samples: 125.0 mg compound 34 or compound 35 was weighed and added with 4 ml ultrapure water, and 25 ul methanesulfonic acid was added with stirring. The mixture was further stirred until clear and transparent (pH ˜3.32). 1 ml of the above solution was added with 4 ml of ultra-pure water to obtain 5 mg/ml of compound 34 or compound 35 solution (pH=3.5).
Dose and mode of administration: single oral dose (100 mpk) and single intravenous dose (5 mpk).
Administration volume: 4 ml/kg (orally), 1 ml/kg (intravenously).
The plasma concentration of the compound was determined by LC-MS/MS (AB scexqtrap@4500 LCMS/MS system). Pharmacokinetic parameters were calculated by WinNonlin (a professional software). The experiment was repeated once.

C=CC(=O)N1CCC(N(CC)c2cc(-c3ccc(CN4CCCCC4)cc3)cc(C(=O)NCc3c(C)cc(C)[nH]c3=O)c2C)CC1 [Example 34, N-(4,6-dimethyl-2-oxo-1,2-dihydro-pyridin-3-ylmethyl)-5-[(1-acryloyl-piperidin-4-yl)-ethyl-amino]-4-methyl-4′-(piperidin-1-ylmethyl)-[1,1′-biphenyl]-3-carboxamide]
bioavailability, in words: good bioavailability | bioavailability (male, rat, plasma, IV 5 mg/kg, PO 100 mg/kg, methanesulfonic acid aqueous solution): 48.8%

— US11214561B2, “Histone methyltransferase EZH2 inhibitor, preparation method and pharmaceutical use thereof” (ANCUREALL PHARMACEUTICAL (SHANGHAI) CO., LTD., priority 2017, dated 2022)
